Assay results reported in US8466118B2, “Modulation of blood brain barrier protein expression” (Saint Louis University, priority 2007, dated 2013).
Oligonucleotides are written 5' to 3', each unit as a sugar letter and its base; * is a phosphorothioate linkage, no mark a phosphodiester; rarer units and linkages stand in square brackets, end groups in braces. Plain capitals give the bases only. No end group written: not given here. d = 2'-deoxy (DNA)

Experiments:
[1] = target: T1, beta-F1 ATPase (Mus musculus, UniProt P56480); experiment: Brain perfusion uptake of I-PACAP27/I-PACAP38 after iv antisense; format: in vivo; details: single tail vein injection 24 h before study, 10 μg/mouse
T1 construct: from tissue; host or cells: brain / blood-brain barrier of living mice (CD-1; SAMP8 in the T-maze study)
Procedure: To test the effectiveness of PTS-6 antisenses after their intravenous administration, two month old male CD-1 mice kept on a 12/12 hour light/dark cycle with food and water freely available were given an injection by tail vein of 0.9% saline with or without 10 μg/mouse of each of the three antisenses. To determine the specificity of the PTS-6 antisense on I-PACAP27 efflux, three other antisenses were also injected iv. These were:
After 24 h, the mice were anesthetized with urethane and both jugular veins exposed. The thorax was opened, the descending thoracic aorta clamped, both jugular veins severed, and lactated Ringer's solution containing I-PACAP27 (250,000 cpm/ml) perfused through the left ventricle of the heart at the rate of 2 ml/min. ^131I-PACAP38 (hereafter referred to as I-PACAP38) was perfused in some mice treated with PTS-6 antisense. After 5 min, the perfusion was stopped and 20 ml of lactated Ringer's solution was infused through the left ventricle of the heart to wash out the vascular space of the brain. The level of radioactivity was determined in the brain and in an aliquot of the perfusion fluid and results expressed as the brain/perfusion ratio in units of μl/g.

[2] = Percent of iv injected dose taken up per gram of brain or liver; format: in vivo, mouse
Procedure: (§1) Calculation of the percent of injected dose taken up per gram of tissue: For the purpose of these studies, mice were injected iv (into the jugular vein) with P-19 mer or P-23 mer (5×10^5 cpm/200 μl of Lactated Ringer's solution (Baxter Healthcare Corporation, Deerfiled, Ill.) supplemented with 1% BSA). […] Serum levels of radioactivity were determined by counting 50 μl of serum in a gamma counter.
(§2) The % of the injected dose taken up by each gram of either whole brain, brain region (hippocampus or frontal cortex) or liver tissue (% Inj dose/g brain) was calculated using the following formula: % Inj dose/g brain=100(Am/Cpt−Vi)Cpt/Inj, where Am/Cpt represents the brain/serum ratio at time t, and Inj is the mean dose injected i.v. Subtracting Vi from the tissue/serum ratio corrects for P-Olg in the vascular space of the whole tissue. This will remove the vascular component so that the quantities expressed represent only the P-Olg that has been taken up by tissue. The values for % Inj dose/g brain will be plotted against their respective time points (min).
For these studies, the PS-ODNs were delivered iv and relative uptake into the brain and liver (from 5-30 min) were studied.

[3] = Brain-to-blood efflux rate of icv P-Olg; format: in vivo, mouse; details: for half-life of efflux from the brain: first 20 min after icv administration; for rate of brain efflux: icv injection
Procedure: First, mice were anesthetized with an i.p. injection of 40% urethane. After the scalp was removed, a hole was made through the cranium (1.0 mm lateral and 0.5 mm posterior to bregma) with a 26-gauge needle. All of the needle except 2.5 to 3.0 mm of the tip was covered by PE-10 tubing. […] Injections were made into the lateral ventricle (icv) with a 1.0 μl Hamilton syringe.
In experiments in which brain efflux of the cocktail PS-ODNs were determined, each P-Olg (either P-19 mer or P-23 mer) was studied separately. A P-Olg (5×10^3 cpm/μl) was administered by icv injection. Mice were then decapitated at 2, 5, and 20 min after injection and the brain was removed. The amount of radioactivity present in the brain was measured by a scintillation counter. The amount of radioactivity in the brain at t=0 was estimated in mice overdosed with urethane. […] Brains from these mice were removed 10 min after injection. The log of the mean % of the injected dose of radioactivity (amount detected/amount injected*100=% Inj Dose) in each brain was plotted against time (min) and linear regression analysis was used to create a line between these time points.

[4] = CNS pharmacokinetics of iv P-Olg (influx rate, saturability, capillary depletion, regional uptake); format: in vivo, mouse; details: for distribution between brain capillaries and parenchyma (capillary depletion) / saturability of brain uptake: 30 min after iv; for distribution between brain capillaries and parenchyma (capillary depletion): with vascular washout; for saturability of brain uptake: co-administration of 10 μg unlabeled PS-ODN; for rate of brain uptake (Ki): iv (jugular), multiple-time regression 2-30 min; for mean regional uptake into hippocampus (HPC) versus frontal cortex (FC) and whole brain (WB): iv, 2-30 min
Procedure: For this analysis, the brain/serum ratios for time points ranging from 2 to 30 min after i.v. injection was plotted against their respective exposure times (Expt). Expt is used instead of real time because this value corrects for the clearance of the injected substance from the blood. Without this correction, the influx rate would be overestimated. […] Expt will be calculated using the following formula: Expt=[∫^toCp(t)dt]/Cpt, where t is time, Cp represents the level of radioactivity in the serum and Cpt is the level of radioactivity in the serum at time t.
as §1, §2
Measuring saturability of brain uptake for cocktail ODNs: To determine if brain uptake of each individual P-Olg was saturable, 10 μg/mouse of unlabeled cocktail PS-ODN (either 19 mer or 23 mer) was included in the i.v. injection of either P-19 mer or P-23 mer at a dose of 5×10^5 cpm/200 μl of Lactated Ringer's solution supplemented with 1% BSA [LR-BSA]). Brain and serum samples were collected 30 min after i.v. injection. Results were expressed as brain/serum ratios.
In these studies, mice received an iv injection of either P-19 mer or P-23 mer at a dose of 5×10^5 cpm/200 μl LR-BSA into the jugular vein. Washout of the vascular space was performed to remove any substances that were intravascular or loosely adhered to the capillary lumen of the brain microvasculature.
Mice were anesthetized with 40% urethane and, at 30 min after i.v. injection of P-Olg into the jugular vein, the abdomen was opened and arterial blood was collected from the abdominal aorta. Next, the thorax was opened with a midline sternal incision and the descending thoracic aorta was clamped to cut off the circulation to the lower body. Both jugular veins were severed and an 18-gauge needle connected to a 20 ml syringe containing lactated Ringers (LR) solution was inserted into the left ventricle of the heart. All 20 ml of LR were infused into the mouse heart over a period of 1-2 min. This washes out the vascular space of the brain and drains out the severed jugular veins. […] Next, the homogenate was vortexed and homogenized a second time (3 strokes). All homogenization steps were performed at 4° C. on ice. […] After centrifugation, the supernatant containing the brain parenchyma was separated from the pellet (containing the brain microvasculature) and the level of radioactivity was determined with a Beckman scintillation counter.
Results from the capillary depletion experiments were expressed as the volume of distribution in the brain or capillaries for the injected substance. Volume of distribution (VD) values were expressed as tissue (parenchyma or capillary)/serum ratios and were calculated for both fractions using the following formula: VD=(cpm/gram of tissue)/(cpm/ml of serum)

[5] = test system: mouse brain microvessels; experiment: I-PACAP27 binding to isolated mouse brain microvessels; details: for displacement of I-PACAP27 binding by unlabeled peptide: 50 nM unlabeled peptide, 2.5 min
Procedure: Binding Study. Freshly isolated microvessels (30 μg protein) were resuspended in 45 μl of incubation buffer (129 mM NaCl, 2.5 mM KCl, 7.4 mM Na2HPO4, 1.3 mM KH2PO4, 0.63 mM CaCl2, 0.74 mM MgSO4, 5.3 mM glucose, 0.1 mM ascorbic acid, pH 7.4) containing 1% bovine serum albumin (BSA). Microvessel protein levels were determined with the Biorad DC protein assay kit (Hercules, Calif.). Incubation buffer, PACAP27 (4 μl of 0.8 nM), and any additives as indicated below were mixed with the 45 μl suspension of cells to a final volume of 60 μl (to give a final PACAP27 concentration of 53 pM) and incubated for 2.5 min at room temperature unless otherwise specified. At the end of incubation, samples were assayed for protein-bound radioactivity by vacuum filtration through Gelman Sciences glass microfiber filters (Ann Arbor, Mich.) pretreated with 0.5% polyethyleneimine. Filters were washed three times with 4 ml of incubation buffer at 4° C. The radioactivity trapped on the filters was measured using a gamma-counter. Nonspecific binding was determined in the absence of microvessels and under the above conditions was 20% of the total binding (TB). The specific binding was calculated as total binding minus non-specific binding and expressed as a percentage. All experiments were performed in triplicate on at least three occasions and the results reported as means with their standard errors.
Inhibition of Specific Binding of PACAP27. Self-inhibition was tested by adding varying amounts of unlabeled PACAP27. The percent of specific binding was calculated by taking the % TB for microvessels incubated with 0.8 nM PACAP27 as 100% and without microvessel incubation as 0%. An n of 3 was used per concentration. The fmol specifically bound was calculated by dividing the percent of specific binding by 100 and multiplying by the pM (PACAP27 and any unlabeled PACAP27 combined) of the incubation solution and by the volume. This was plotted against the nM in the media and the relation fitted to a one-site hyperbolic binding model.
Inhibition of I-PACAP27 Binding by PACAP Related Peptides. The effects of 50 nM of unlabeled PACAP27, PACAP38, the PACAP antagonists PACAP 6-27 and PACAP 6-38 (Bachem, Torrance, Calif.), and VIP (Sigma, St. Louis, Mo.) on PACAP27 specific binding was determined. Results were expressed as percent of control.

[6] = target: Type-I binding sites; details: anterior pituitary and hypothalamus, I-PACAP27 radioligand; cited from earlier work

T1 sequence (P56480 47-529): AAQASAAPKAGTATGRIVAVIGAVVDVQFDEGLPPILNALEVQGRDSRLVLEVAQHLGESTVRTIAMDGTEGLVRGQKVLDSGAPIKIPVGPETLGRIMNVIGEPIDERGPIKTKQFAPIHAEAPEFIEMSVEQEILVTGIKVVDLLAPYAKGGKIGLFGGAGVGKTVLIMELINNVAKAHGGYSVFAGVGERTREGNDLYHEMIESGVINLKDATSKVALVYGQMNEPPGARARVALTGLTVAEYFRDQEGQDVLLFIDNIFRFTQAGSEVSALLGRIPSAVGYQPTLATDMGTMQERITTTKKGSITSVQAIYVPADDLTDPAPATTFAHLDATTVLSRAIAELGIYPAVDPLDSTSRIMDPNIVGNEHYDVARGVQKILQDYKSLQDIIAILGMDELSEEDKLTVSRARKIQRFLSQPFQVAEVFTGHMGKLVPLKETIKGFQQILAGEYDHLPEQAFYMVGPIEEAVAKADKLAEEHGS

## 5′-(_P═S)GATCACGTACACATCGACACCAGTCGCCATGACTGAGCTT (dG*dA*dT*dC*dA*dC*dG*dT*dA*dC*dA*dC*dA*dT*dC*dG*dA*dC*dA*dC*dC*dA*dG*dT*dC*dG*dC*dC*dA*dT*dG*dA*dC*dT*dG*dA*dG*dC*dT*dT; listed as Mus musculus) [random 42-mer]
[1]
  uptake of I-PACAP27 delivered by brain perfusion: no statistically significant effect

## 5′-(_P═S)GTGTGGGCCGATGCAAACAGCAG-3′ (antisense dG*dT*dG*dT*dG*dG*dG*dC*dC*dG*dA*dT*dG*dC*dA*dA*dA*dC*dA*dG*dC*dA*dG; listed as Mus musculus) [P-23 mer]
[2]; 5 min after iv injection
  percentage taken up by each gram of brain: 0.010 % Inj dose/g
  percentage taken up by each gram of liver: 2.71 % Inj dose/g
[2]; 10 min after iv injection
  percentage taken up by each gram of brain: 0.044 % Inj dose/g
  percentage taken up by each gram of liver: 5.33 % Inj dose/g
[2]; 30 min after iv injection
  percentage taken up by each gram of brain: 0.052 % Inj dose/g
  percentage taken up by each gram of liver: 7.67 % Inj dose/g
[3]
  half-life of efflux from the brain: 0.797 h
  rate of brain efflux: 0.0063 % of the injected dose/min
[4]
  distribution between brain capillaries and parenchyma (capillary depletion): detected in the target tissue, the brain capillaries
  saturability of brain uptake: significantly reduced
  rate of brain uptake (Ki): 0.20 µL/g/min
  mean regional uptake into hippocampus (HPC) versus frontal cortex (FC) and whole brain (WB): significantly greater

## 5′-(_P═S)TGATTTGGTCTCTGCAGGC-3′ (antisense dT*dG*dA*dT*dT*dT*dG*dG*dT*dC*dT*dC*dT*dG*dC*dA*dG*dG*dC; listed as Mus musculus) [P-19 mer]
[2]; 5 min after iv injection
  percentage taken up by each gram of brain: 0.042 % Inj dose/g
  percentage taken up by each gram of liver: 447 % Inj dose/g
[2]; 10 min after iv injection
  percentage taken up by each gram of brain: 0.079 % Inj dose/g
  percentage taken up by each gram of liver: 5.54 % Inj dose/g
[2]; 30 min after iv injection
  percentage taken up by each gram of brain: 0.116 % Inj dose/g
  percentage taken up by each gram of liver: 10.43 % Inj dose/g
[3]
  half-life of efflux from the brain: 3.858 h
  rate of brain efflux: 0.0013 % of the injected dose/min
[4]
  distribution between brain capillaries and parenchyma (capillary depletion): detected in the target tissue, the brain capillaries
  saturability of brain uptake: not significantly decreased
  rate of brain uptake (Ki): 0.18 µL/g/min
  mean regional uptake into hippocampus (HPC) versus frontal cortex (FC) and whole brain (WB): greater than the uptake into the WB

## PACAP38: biologically active form of pituitary adenylate cyclase-activating polypeptide
[5]; room temperature
  displacement of I-PACAP27 binding by unlabeled peptide: PACAP38>PACAP27>PACAP(6-38)>PACAP(6-27)
[6]
  Kd: ~0.5 nM

## PACAP [PACAP27]
[5]; 53 pM, room temperature
  time at which specific binding reached a maximum: about 20 min
[5]; room temperature
  displacement of I-PACAP27 binding by unlabeled peptide: PACAP38>PACAP27>PACAP(6-38)>PACAP(6-27)
[5]; self-inhibition of I-PACAP27 binding
  amount of unlabeled PACAP27 above which binding was inhibited competitively: above 30 ng
[6]
  Kd: ~0.5 nM

## PACAP(6-27): PACAP antagonist (FTDSYSRYRKQMAVKKYLAAVL; ends and bridges not checked)
[5]; room temperature
  displacement of I-PACAP27 binding by unlabeled peptide: PACAP38>PACAP27>PACAP(6-38)>PACAP(6-27)

## PACAP(6-38): PACAP antagonist (FTDSYSRYRKQMAVKKYLAAVLGKRYKQRVKNK; ends and bridges not checked)
[5]; room temperature
  displacement of I-PACAP27 binding by unlabeled peptide: PACAP38>PACAP27>PACAP(6-38)>PACAP(6-27)

## vasoactive intestinal polypeptide [VIP]
[5]; room temperature
  displacement of I-PACAP27 binding by unlabeled peptide: not affected
[6]
  Kd: > 500 nM
